Data taken from article PMC10779255, “Novel Hydroxamic Acids Containing Aryl-Substituted 1,2,4- or 1,3,4-Oxadiazole Backbones and an Investigation of Their Antibiotic Potentiation Activity” (International Journal of Molecular Sciences, 2023).
“Also recorded” adds a separate entry of the source.

What was measured:
[1] = test system: P. aeruginosa ATCC 27853; assay: MIC (broth microdilution) and growth curves of antibiotics in combination with 9c or 9d; type: cell-based, Pseudomonas aeruginosa; conditions: for time of growth inhibition in combination with nalidixic acid: 50 μM of compound + 2.15 μM nalidixic acid, growth curves; for MIC: Pseudomonas aeruginosa, ATCC27853, read-out: MIC of nalidixic acid in the presence of compound; for P. aeruginosa ATCC 27853 growth in combination with antibiotics: with nalidixic acid or rifampicin
Description: (§1) Escherichia coli strain MG1655 and Pseudomonas aeruginosa strain ATCC 27853 were obtained from the American Type Culture Collection (ATCC; Rockville, MD, USA). Subculturing and inoculum preparation were prepared according to the Clinical and Laboratory Standards Institute (CLSI) recommended method, M7-A9 [42], using MHA and MHB.
Minimum inhibitory concentrations (MICs) for rifampicin and nalidixic acid were determined via the modified broth microdilution method in triplicate according to CLSI guidelines M7-A9 and M100-A30 [43]. The antibiotics were serially diluted twofold in 100 μL of MHB. The bacteria inoculum was 100 μL of a 1.0 × 10^6 CFU/mL dilution in MHB. MICs for antibiotics in the presence of 9c or 9d were determined with the same method.
MIC endpoints were read after 24 h of incubation with an iMark microplate absorbance reader (Bio-Rad, Hercules, CA, USA). Growth curves of P. aeruginosa ATCC 27853 in the presence of rifampicin/nalidixic acid and 9c/9d were obtained using a multifunction microplate reader, SuperMax 3100 (ShanghaiFlash, Shanghai, China). Cells were grown in triplicate at 37 °C with aeration.

[2] = Cytotoxicity assay (Alamar Blue); type: cell-based; conditions: human, HEK293 cells, 72 h exposure, mean ± SD, at least 3 independent experiments
Description: (§2) The HEK293 cell line was obtained from the ECACC (European Collection of Authenticated Cell Cultures, cat. 85120602, Salisbury, UK). The cells were grown in monolayer culture in Dulbecco’s Modified Eagle Medium (DMEM) (PanEco, Moscow, Russia) supplemented with 2 mM of L-glutamine, 1% penicillin/streptomycin (Capricorn Scientific, Ebsdorfergrund, Germany), and 10% heat-inactivated fetal bovine serum (HyClone, Cytiva, Pasching, Austria) in a humidified atmosphere of 5% CO2 and at 37 °C (Binder, Tuttlingen, Germany). For analysis, the HEK293 cells were seeded into a 96-well plate (Corning Incorporated, Corning, NY, USA) in 100 μL of complete culture medium at a final concentration of 1 × 10^4 cells/well and cultured for 24 h for proper attachment. Subsequently, the medium was removed, and cells were exposed to the test inhibitor with different concentrations for 72 h in 100 μL of fresh complete culture medium. The sensitivity of the cells to test inhibitor molecules was detected using the vital dye Alamar Blue (Invitrogen, Carlsbad, CA, USA). The Alamar Blue assay was performed according to the procedure described by O’Brien et al.. After incubation with test inhibitor molecules, 10 μL of Alamar Blue reagent was added to each well, cell culture plates were returned to a humidified incubator, and the fluorescence was read after 3 h. The plates were exposed to an excitation wavelength of 545 nm, and the emission at 600 nm was measured with the CLARIOstar Plus (BMG Labtech, Ortenberg, Germany, Software Version 5.70 R2). To determine corresponding 50% cellular cytotoxicity (CC50) values, a four-parameter sigmoidal fit curve model (GraphPad Prism 8 software) was used to measure the data.

[3] = test system: E. coli MG1655; assay: Growth curves of E. coli MG1655 with antibiotics, with or without LpxC inhibitors (antibiotic potentiation); type: cell-based, Escherichia coli; conditions: for Activity: combined action together with the antibiotic, marking used for QSAR; for potentiation of kanamycin (sensitivity of cells): kanamycin 0.62 μM; for potentiation of kanamycin (sensitivity of cells) / potentiation of rifampicin (sensitivity of cells): inhibitor 50 or 100 µM; for potentiation of kanamycin (sensitivity of cells) / potentiating activity with nalidixic acid (growth inhibition) / potentiation of rifampicin (sensitivity of cells): OD600 growth curves; for potentiating activity with nalidixic acid (growth inhibition): nalidixic acid 17.22 μM, inhibitor 50–100 µM; for potentiation of rifampicin (sensitivity of cells): rifampicin 6.08 μM; for bacteriostatic effect in the first 10 h of incubation: with antibiotic, resumption of culture growth observed subsequently; on Activity: key: active (1); inactive (0)
Description: as §1
Growth curves were obtained with a Bioscreen C automated growth analysis system. Cultures of E. coli MG1655 were grown overnight at 37 °C, diluted 1:100 in fresh medium, inoculated into honeycomb wells in triplicate, and grown at 37 °C with maximum shaking using the platform of the Bioscreen C instrument. […] OD600 values were recorded automatically at specified times, and the means of the triplicate cultures were plotted.

[4] = test system: HEK293 cell line; assay: Cytotoxicity assay (Alamar Blue); type: cell-based; conditions: HEK293 cells, 72 h exposure, mean ± SD, at least 3 independent experiments
Description: as §2

[5] = test system: E. coli LpxC; conditions: cited from earlier work

| decrease of MIC of rifampicin ([1]; 25 μM of compound) | reduction of MIC of nalidixic acid ([1]; 25 μM of compound) | MIC of rifampicin in the presence of compound ([1]; 50 μM of compound) [µM] | reduction of MIC of nalidixic acid ([1]; 50 μM of compound) | reduction of MIC of rifampicin ([1]; 50 μM of compound) [times] | MIC of rifampicin in the presence of compound ([1]; 100 μM of compound) [µM] | decrease of MIC of nalidixic acid ([1]; 100 μM of compound) | reduction of MIC of rifampicin ([1]; 100 μM of compound) [times] | MIC ([1]; 100 μM of compound) [µM] | melting point | SMILES | time of growth inhibition in combination with nalidixic acid [1] [h] | P. aeruginosa ATCC 27853 growth in combination with antibiotics [1] | CC50 at 72 h [2] [µM] | Activity [3] | potentiation of kanamycin (sensitivity of cells) [3] | potentiating activity with nalidixic acid (growth inhibition) [3] | potentiation of rifampicin (sensitivity of cells) [3] | bacteriostatic effect in the first 10 h of incubation [3] | CC50 (HEK293) [4] | inhibition of E. coli LpxC [5] |
| --- | --- | --- | --- | --- | --- | --- | --- | --- | --- | --- | --- | --- | --- | --- | --- | --- | --- | --- | --- | --- |
| twofold | two times | 0.08 | four times | 64 | 0.08 | approximately eight-fold | 64 | 2.15 | 159.2 °C (dec.) | O=C(Cc1nc(-c2cc(F)c(F)c(F)c2)no1)NO [Compound 9c] | ≤ 14 | significantly reduced; also recorded: best results | 189 ± 29.5 | 1 | greatest effectiveness; also recorded: greatest potentiating activity | greatest potentiating activity | greatest effectiveness; also recorded: greatest potentiating activity | powerful bacteriostatic effect |  |  |
| inactive | ineffective | 0.08 | four times | 64 | 0.08 | approximately eight-fold | 64 | 2.15 | 165.4 °C (dec.) | Cc1cccc(-c2noc(CC(=O)NO)n2)c1 [Compound 9d] | ≤ 8 | significantly reduced; also recorded: best results | 176 ± 17.8 | 1 | greatest potentiating activity | greatest potentiating activity | greatest potentiating activity | powerful bacteriostatic effect |  |  |
|  |  |  |  |  |  |  |  |  | 198 °C (dec.) | Cn1c(-c2nnc(C(=O)NO)o2)cc2ccccc21 [Compound 36] |  |  | 132 ± 23.7 | 1 | completely ineffective | inhibited bacterial growth less effectively; also recorded: weak potentiating activity | completely ineffective |  | increased toxicity |  |
|  |  |  |  |  |  |  |  |  |  | CCCc1cc(C2=N[C@@H](C(=O)NO)CO2)cc(OC)c1OC [L-161,240] |  |  |  |  |  |  |  |  |  | potent inhibitors |
